Data on 15 molecules can be found in article PMC9268013, “Design, Synthesis, and Biological Evaluation of N14-Amino Acid-Substituted Tetrandrine Derivatives as Potential Antitumor Agents against Human Colorectal Cancer” (Molecules, 2022).

Holding throughout (format): cell-based
In test [1] the test system is human colon cancer cells (HCT-15). The experiment in a line: MTT antiproliferative assay, HCT-15. Conditions: for IC50: Homo sapiens, MTT, 72 h, HCT-15. As to the method: (§1) Human lung cancer cell (A549,), human umbilical vein endothelial cells (HUVECs,), human colon cancer cell lines (HCT-15), human breast cancer cells (MCF-7), human liver cancer cells (HepG2), human pancreatic cancer cells (BxPC-3), and human hepatic cell line (L-02) were obtained from the Sichuan University. A549, HUVECs, and L-02 were cultured in DMEM medium (high glucose, HyClone, GE Healthcare, Sydney, Australia). Human colon cancer cell lines HCT-15, human pancreatic cancer cells […] BxPC-3 were cultured in RPMI-1640. Human breast cancer cells MCF-7 and human liver cancer cells HepG2 were cultured in MEM medium. All the mediums, including 10% fetal bovine serum (FBS, HyClone, GE Healthcare, Sydney, Australia) and 1% ampicillin/streptomycin, were used to culture the above cells at 37 °C in a humidified atmosphere (5% CO2 and 95% air).
(§2) The antiproliferative activity of the title compounds was determined using the MTT (3-(4,5-dimethylthiazol-2-yl)-2,5-diphenyltetrazolium bromide, Sigma-Aldrich, Saint Louis, MO, USA) assay on different cells. Cells lines were seeded into 96-well plates at a density of 2000 to 6000 cells/well. DMSO was used to dissolve the test compounds, and TET was used as a positive control. After 24 h, the test compounds were added at different concentrations (0.625, 1.25, 2.5, 5, 10, and 20 μM) and incubated at 37 °C for 72 h. MTT was added to each well at a final concentration of 0.5 mg/mL and incubated at 37 °C for 4 h. Then, 150 μL of DMSO was added to each well to dissolve the formazan crystals. The absorbance was measured at 570 nm by a microplate reader (ELX800UV, Bio-Tek, Windoski, VT, USA). All measurements were repeated at least three times under the same conditions. Graphpad Prism 8.0 was used to calculate the IC50 values.

In test [2] the test system is human normal hepatocyte cells (L-02). The experiment in a line: MTT toxicity assay, normal hepatocytes L-02. As to conditions: 72 h, normal hepatocyte L-02 (toxicity), read-out: Antiproliferative Activity (IC50/μM) L-02. As for the experimental part:
as §1, §2
For orientation: Tetrazolium assays rely on reduction of a dye to a coloured formazan, in cell work by metabolically active cells.

Test [3] has as its system human breast cancer cells (MCF-7). The experiment in a line: MTT antiproliferative assay, MCF-7. As to conditions: Homo sapiens, MCF7, 72 h. As for the experimental part: as §1, §2
In test [4] the test system is human pancreatic cancer cells (BxPC-3). Briefly: MTT antiproliferative assay, BxPC-3. As to conditions: Homo sapiens, BXPC-3, 72 h. As to the method:
as §1, §2

Test [5] relates to human liver cancer cells (HepG2). Briefly: MTT antiproliferative assay, HepG2. Conditions: Homo sapiens, HepG2, 72 h. As to the method:
as §1, §2

Test [6] relates to human umbilical vein endothelial cells (HUVEC). Briefly: MTT antiproliferative assay, HUVEC. Conditions: 72 h. As for the experimental part:
as §1, §2

In test [7] the test system is human lung cancer cells (A549). The experiment in a line: MTT antiproliferative assay, A549. Conditions: Homo sapiens, A549, 72 h. As to the method:
as §1, §2

Regarding `COc1cc(NC(=O)[C@H](C)N)c2cc1Oc1ccc(cc1)C[C@H]1c3cc(c(OC)cc3CCN1C)Oc1c(OC)c(OC)cc3c1[C@H](C2)N(C)CC3` [Compound 13], the IC50 was 4.69 ± 0.47 µM in test [1]; greater than 20 µM in test [2]; 11.1 ± 0.26 µM in test [3]; 6.95 ± 0.57 µM in test [4]; 3.27 ± 1 µM in test [5]; 2.2 ± 0.37 µM in test [6]. The IC50 in test [7] stood at 8.12 ± 0.43 µM.

Consider `COc1cc(NC(=O)[C@H](CO)NC(=O)OC(C)(C)C)c2cc1Oc1ccc(cc1)C[C@H]1c3cc(c(OC)cc3CCN1C)Oc1c(OC)c(OC)cc3c1[C@H](C2)N(C)CC3` [Compound 8, 14-N-(Boc-L-serine)-tetrandrine], for which the IC50 in test [1] was 5.87 ± 0.3 µM; in test [2], greater than 20 µM; in test [3], 5.84 ± 0.25 µM; in test [4], 3.55 ± 0.32 µM; in test [5], 3.76 ± 1.34 µM; in test [6], 3.96 ± 0.36 µM. The same molecule returned an IC50 in test [7] of 7.45 ± 0.32 µM.

As to `COc1cc(NC(=O)[C@@H](NC(=O)OC(C)(C)C)[C@@H](C)O)c2cc1Oc1ccc(cc1)C[C@H]1c3cc(c(OC)cc3CCN1C)Oc1c(OC)c(OC)cc3c1[C@H](C2)N(C)CC3` [Compound 9], the IC50 in test [1] was 8.57 ± 0.57 µM; in test [2], greater than 20 µM; in test [3] it was 11.3 ± 0.55 µM; in test [4] it was 13.1 ± 0.37 µM; in test [5], 6.97 ± 0.34 µM; in test [6] it was 4.91 ± 1.05 µM. Also, the IC50 in test [7] amounted to 12.3 ± 0.61 µM.

For `COc1cc(NC(=O)[C@H](C)NC(=O)OC(C)(C)C)c2cc1Oc1ccc(cc1)C[C@H]1c3cc(c(OC)cc3CCN1C)Oc1c(OC)c(OC)cc3c1[C@H](C2)N(C)CC3` [Compound 4], the IC50 is 3.28 ± 0.32 µM in test [1]; greater than 20 µM in test [2]; 5.78 ± 0.35 µM in test [3]; 4.74 ± 0.37 µM in test [4]; 3.9 ± 0.62 µM in test [5]; 4.01 ± 0.41 µM in test [6]. Further, the IC50 in test [7] amounted to 7.44 ± 1.11 µM.

For `COc1cc(NC(=O)CN)c2cc1Oc1ccc(cc1)C[C@H]1c3cc(c(OC)cc3CCN1C)Oc1c(OC)c(OC)cc3c1[C@H](C2)N(C)CC3` [Compound 12, 14-N-(L-glycine)-tetrandrine], the IC50 was 3.54 ± 0.36 µM in test [1]; greater than 20 µM in test [2]; 6.91 ± 0.66 µM in test [3]; 3.98 ± 0.16 µM in test [4]; 3.19 ± 0.76 µM in test [5]; 3.19 ± 0.61 µM in test [6]. For the same molecule, in test [7], the IC50 was determined as 4.94 ± 0.45 µM.

With `COc1cc(NC(=O)[C@@H](N)Cc2ccc(O)cc2)c2cc1Oc1ccc(cc1)C[C@H]1c3cc(c(OC)cc3CCN1C)Oc1c(OC)c(OC)cc3c1[C@H](C2)N(C)CC3` [Compound 20, 14-N-(L-tyrosine)-tetrandrine], the IC50 in test [1] worked out at 3.33 ± 0.08 µM; in test [2] it was 10 ± 1.28 µM; in test [3] it was 3.7 ± 0.91 µM; in test [4] it was 2.36 ± 0.15 µM; in test [5], 1.44 ± 0.18 µM; in test [6] it was 1.91 ± 0.09 µM. Further, in test [7], the IC50 is 4.12 ± 0.27 µM.

Regarding `COc1cc(NC(=O)[C@@H](N)[C@@H](C)O)c2cc1Oc1ccc(cc1)C[C@H]1c3cc(c(OC)cc3CCN1C)Oc1c(OC)c(OC)cc3c1[C@H](C2)N(C)CC3` [Compound 18, 14-N-(L-threonine)-tetrandrine], the IC50 is 5.28 ± 0.37 µM in test [1]; greater than 20 µM in test [2]; 10.2 ± 0.4 µM in test [3]; 5.6 ± 0.38 µM in test [4]; 3.57 ± 0.67 µM in test [5]; 3.25 ± 0.69 µM in test [6]. The IC50 in test [7] came out at 6.81 ± 1.1 µM.

`COc1cc(NC(=O)[C@@H](NC(=O)OC(C)(C)C)C(C)C)c2cc1Oc1ccc(cc1)C[C@H]1c3cc(c(OC)cc3CCN1C)Oc1c(OC)c(OC)cc3c1[C@H](C2)N(C)CC3` [Compound 5]: the IC50 in test [1] was 4.31 ± 0.09 µM; in test [2], greater than 20 µM; in test [3], 7.4 ± 0.31 µM; in test [4], 4.63 ± 0.09 µM; in test [5], 3.54 ± 0.3 µM; in test [6], 3.04 ± 0.34 µM. In test [7], this molecule had an IC50 of 7.24 ± 0.41 µM.

With `COc1cc(NC(=O)[C@@H](N)CO)c2cc1Oc1ccc(cc1)C[C@H]1c3cc(c(OC)cc3CCN1C)Oc1c(OC)c(OC)cc3c1[C@H](C2)N(C)CC3` [Compound 17, 14-N-(L-serine)-tetrandrine], the IC50 in test [1] was 3.94 ± 0.37 µM; in test [2] it was greater than 20 µM; in test [3], 7.53 ± 0.11 µM; in test [4], 3.67 ± 0.19 µM; in test [5], 3.13 ± 0.7 µM; in test [6], 2.88 ± 0.26 µM. Besides, in test [7], the IC50 worked out at 7.44 ± 1.02 µM.

Regarding `COc1cc(NC(=O)[C@H](N)Cc2ccccc2)c2cc1Oc1ccc(cc1)C[C@H]1c3cc(c(OC)cc3CCN1C)Oc1c(OC)c(OC)cc3c1[C@H](C2)N(C)CC3` [Compound 19], the IC50 in test [1] turned out to be 3.39 ± 0.07 µM; in test [2] it was 9.02 ± 0.26 µM; in test [3], 3.31 ± 0.01 µM; in test [4], 1.75 ± 0.13 µM; in test [5] it was 1.71 ± 0.46 µM; in test [6], 1.92 ± 0.17 µM. Further, the IC50 in test [7] stood at 2.67 ± 0.14 µM.

In the case of `COc1cc(NC(=O)[C@@H](N)CC(C)C)c2cc1Oc1ccc(cc1)C[C@H]1c3cc(c(OC)cc3CCN1C)Oc1c(OC)c(OC)cc3c1[C@H](C2)N(C)CC3` [Compound 15, 14-N-(L-leucine)-tetrandrine], the IC50 in test [1] is 2.71 ± 0.22 µM; in test [2], 12.08 ± 0.04 µM; in test [3], 6.74 ± 0.16 µM; in test [4] it was 4.55 ± 0.27 µM; in test [5] it was 3.66 ± 0.82 µM; in test [6] it was 3.09 ± 0.36 µM. The IC50 in test [7] was determined as 5.92 ± 0.73 µM.

With `COc1cc(NC(=O)[C@H](Cc2ccc(O)cc2)NC(=O)OC(C)(C)C)c2cc1Oc1ccc(cc1)C[C@H]1c3cc(c(OC)cc3CCN1C)Oc1c(OC)c(OC)cc3c1[C@H](C2)N(C)CC3` [Compound 11, 14-N-(Boc-L-tyrosine)-tetrandrine], the IC50 came to 3.56 ± 0.27 µM in test [1]; 11.8 ± 0.61 µM in test [2]; 5.03 ± 0.04 µM in test [3]; 3.58 ± 0.15 µM in test [4]; 2.81 ± 0.35 µM in test [5]; 2.16 ± 0.32 µM in test [6]. In test [7], this molecule yielded an IC50 of 6.26 ± 0.41 µM.

For the molecule `COc1cc(NC(=O)[C@H](CC(C)C)NC(=O)OC(C)(C)C)c2cc1Oc1ccc(cc1)C[C@H]1c3cc(c(OC)cc3CCN1C)Oc1c(OC)c(OC)cc3c1[C@H](C2)N(C)CC3` [Compound 6], the IC50 in test [1] amounted to 3.89 ± 0.47 µM; in test [2], 13.58 ± 0.13 µM; in test [3], 4.99 ± 0.66 µM; in test [4] it was 6.39 ± 0.2 µM; in test [5], 3.11 ± 0.68 µM; in test [6], 2.09 ± 0.19 µM. For the same molecule, the IC50 in test [7] worked out at 5.54 ± 0.16 µM.

Consider `COc1cc(NC(=O)[C@@H](Cc2ccccc2)NC(=O)OC(C)(C)C)c2cc1Oc1ccc(cc1)C[C@H]1c3cc(c(OC)cc3CCN1C)Oc1c(OC)c(OC)cc3c1[C@H](C2)N(C)CC3` [Compound 10], for which the “Improvement of antiproliferative activity compared with TET” value in test [1] (HCT-15 cells, vs TET (IC50 = 6.12 μM)) is recorded as “more than 6 fold”. The IC50 in test [1] amounted to 0.91 ± 0.05 µM; in test [2], 15.54 ± 0.11 µM; in test [3] it was 2.59 ± 0.11 µM; in test [4] it was 2.31 ± 0.08 µM; in test [5] it was 1.54 ± 0.02 µM; in test [6], 1.8 ± 0.02 µM. The IC50 in test [7] stood at 1.96 ± 0.24 µM.

Turning to `COc1cc(NC(=O)[C@@H](N)C(C)C)c2cc1Oc1ccc(cc1)C[C@H]1c3cc(c(OC)cc3CCN1C)Oc1c(OC)c(OC)cc3c1[C@H](C2)N(C)CC3` [Compound 14, 14-N-(L-valine)-tetrandrine], the IC50 in test [1] was found to be 4.02 ± 0.15 µM; in test [2], 14.5 ± 0.37 µM; in test [3], 7.96 ± 1.08 µM; in test [4], 4.95 ± 0.29 µM; in test [5], 3.26 ± 0.05 µM; in test [6], 2.48 ± 0.15 µM. The IC50 in test [7] came out at 6.11 ± 0.91 µM.
